The source of these data is ChEMBL document CHEMBL1212847, “Synthesis and pharmacology of 1-methoxy analogs of CP-47,497” (Bioorg Med Chem, 2010).

A word on the Ki: it is a dissociation constant, usually derived from enzyme kinetics or from competition with a known ligand. Read a low Ki as tighter binding.

One experiment concerns the target Cannabinoid receptor 1 (Rattus norvegicus, UniProt P20272). The experiment is described as follows: Displacement of [3H]CP-55940 from CB1 receptor in Sprague-Dawley rat brain cortex membranes. In kind it is cell membranes, Membrane.
The next experiment concerns the target Cannabinoid receptor 2 (Homo sapiens, UniProt P34972). The experiment is described as follows: Displacement of [3H]CP-55940 from human CB2 receptor expressed in CHO cells after 1 hr by liquid scintillation spectrometry analysis. In kind it is cell-based. (In general: Displacement assays read how much labelled ligand stays bound in the presence of the test substance.)

Chain of Cannabinoid receptor 1 (P20272 whole entry): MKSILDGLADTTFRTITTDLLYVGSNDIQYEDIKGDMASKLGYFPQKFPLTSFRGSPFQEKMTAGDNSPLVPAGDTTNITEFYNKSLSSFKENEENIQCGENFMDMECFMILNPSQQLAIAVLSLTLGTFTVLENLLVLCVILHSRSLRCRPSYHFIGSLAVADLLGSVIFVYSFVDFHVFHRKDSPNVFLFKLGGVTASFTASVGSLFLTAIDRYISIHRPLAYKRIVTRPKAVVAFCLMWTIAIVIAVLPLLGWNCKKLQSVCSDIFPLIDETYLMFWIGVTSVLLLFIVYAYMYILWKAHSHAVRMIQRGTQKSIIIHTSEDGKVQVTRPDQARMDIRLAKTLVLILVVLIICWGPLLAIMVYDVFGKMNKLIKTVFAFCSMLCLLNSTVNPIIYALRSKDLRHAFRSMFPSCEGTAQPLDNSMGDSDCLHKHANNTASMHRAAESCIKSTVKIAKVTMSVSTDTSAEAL
Chain of Cannabinoid receptor 2 (P34972 whole entry): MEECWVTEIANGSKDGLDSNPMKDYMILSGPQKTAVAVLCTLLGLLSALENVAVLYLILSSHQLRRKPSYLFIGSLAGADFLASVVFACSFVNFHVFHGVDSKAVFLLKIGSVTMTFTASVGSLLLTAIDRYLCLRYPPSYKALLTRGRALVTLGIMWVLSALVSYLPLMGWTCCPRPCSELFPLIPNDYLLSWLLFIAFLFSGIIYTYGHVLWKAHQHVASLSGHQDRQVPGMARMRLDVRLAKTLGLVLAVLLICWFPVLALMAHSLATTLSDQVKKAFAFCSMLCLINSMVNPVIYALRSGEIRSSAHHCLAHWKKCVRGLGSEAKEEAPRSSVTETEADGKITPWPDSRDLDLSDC

Consider `CCCCCCC(C)(C)c1ccc([C@H]2CCC[C@H](O)C2)cc1` (relative stereo), for which the Ki was determined as 645 nM on Cannabinoid receptor 1 and 178 nM at Cannabinoid receptor 2. The matching figures for `CCCCCCC(C)(C)c1ccc([C@H]2CCC[C@@H](O)C2)c(OC)c1` (relative stereo): > 10000 nM and 808 nM. `CCCCCC(C)(C)c1ccc([C@H]2CCC[C@@H](O)C2)c(OC)c1` (relative stereo): the figures for the Ki at Cannabinoid receptor 1 and on Cannabinoid receptor 2 were 4410 nM and 553 nM, respectively. For the compound `CCCCCCC(C)(C)c1ccc([C@H]2CCC[C@@H](O)C2)c(O)c1`, the Ki on Cannabinoid receptor 1 stood at 9.54 nM.

For the compound `CCCCCC(C)(C)c1ccc([C@H]2CCC[C@H](O)C2)c(OC)c1` (relative stereo), the inhibitory constant (Ki) at Cannabinoid receptor 1 came out at 4120 nM; at Cannabinoid receptor 2, 693 nM.
